Measurements published in US8148089B2, “Alpha-synuclein kinase” (Elan Pharma International Limited, priority 2006, dated 2012).
Like-named read-outs stand apart in the source and are kept apart here.

What was measured:
PLK2 = PLK2 (Homo sapiens, UniProt Q9NYY3); assay: Straight biochemical assay: PLK2-driven synuclein phosphorylation in vitro; conditions: Table 19
[1] = tested on: synuclein phosphorylation in C56BL/6 E46K-Synuclein transgenic mouse cortical cultures; format: cell-based
Description: (§1) Mouse cortical cultures from fetal (i) Swiss-Webster, (ii) C56BL/6 WT and (iii) C56BL/6 E46K-Synuclein Trangenic mice were prepared and maintained in B27/DMEM/1% Penicillin-Streptomycin at 37° C./10% CO2 for three to fourteen days and then treated with kinase inhibitors.
(§2) Cultures were exposed to inhibitors for two hours in B27/DMEM/1% Penicillin-Streptomycin. Cells were immediately washed in 100 μL of PBS plus Mg^2+ and Ca^2+, and harvested in ice-cold CEB minus EGTA plus protease inhibitors, frozen on dry ice and stored at −80° C. until processed. A Micro BCA (Pierce) total protein assay, and total synuclein and phospho-synuclein ELISAs were performed on each plate of treated cells using standard methods.

[2] = tested on: synuclein phosphorylation in rat ventral mesencephalon cultures (E46K-Synuclein lentivirus); assay: Synuclein phosphorylation in RVM transduced with E46K-Synuclein; format: cell-based
Description: (§3) Rat Ventral Mesencephalon (RVM) cultures were prepared from E15 Wistar rats. The RVM cultures were cultured for 2 days and transduced with 0.75 MOI E46K-Synuclein lentivirus alone, or 0.75 MOI E46K-Synuclein lentivirus plus 0.75 MOI ca-PLK2 lentivirus. […] Transduced cultures were maintained in neuronal media with B27/1% FBS and 37° C./5% CO2 until treated with inhibitors. On DIV 17 (which corresponds to 15 days after viral transduction of the cultures) cells were treated with inhibitors for two hours. Cells were then harvested as detailed above in neuronal media with B27/1% FBS. A Micro BCA (Pierce) total protein assay, and total synuclein and phospho-synuclein ELISAs were performed on each plate of treated cells using standard methods.

[3] = tested on: synuclein phosphorylation in rat ventral mesencephalon cultures (E46K-Synuclein plus ca-PLK2 lentivirus); assay: Synuclein phosphorylation in RVM transduced with E46K-Synuclein and caPLK2; format: cell-based; conditions: for EC50: inhibitor 2 h on DIV 17
Description: as §3
In caPLK2 the polo-box has been deleted, activating the Thr to Asp mutation in the kinase activation loop.

endogenous kinase (293) = assay: Synuclein phosphorylation by endogenous kinase in HEK-293 cells (synuclein + vector); format: cell-based, human
Description: (§4) All vectors had the sequence coding for the protein of interest. Transfection was accomplished using Lipofectamine 2000 (Invitrogen, Carlsbad, Calif.) with 0.08 μg vector. Cells were washed and harvested 48 hours post-transfection. A Micro BCA (Pierce) total protein assay and total synuclein and phospho-synuclein ELISAs were performed on each plate of treated cells.

[4] = target: T1, over-expressed PLK2 (293) (Homo sapiens, UniProt Q9NYY3); assay: Synuclein phosphorylation in HEK-293 cells over-expressing synuclein and PLK2; format: cell-based; conditions: for Rank order of potency, Over-Expressed PLK2 (293): Table 19; for Rank order of potency, Synuclein + PLK2: Table 22
T1 construct: expressed in transfected cells; host or cells: HEK-293 naive cells, CMV-promoter expression vector, Lipofectamine 2000
Description: as §4

[5] = target: T2, over-expressed PLK3 (293) (Homo sapiens, UniProt Q9H4B4); assay: Synuclein phosphorylation in HEK-293 cells over-expressing synuclein and PLK3; format: cell-based; conditions: for Rank order of potency, Synuclein + PLK3: Table 22
T2 construct: expressed in transfected cells; host or cells: HEK-293 naive cells, CMV-promoter expression vector
Description: as §4

[6] = target: T3, over-expressed PLK4 (293) (Homo sapiens, UniProt O00444); assay: Synuclein phosphorylation in HEK-293 cells over-expressing synuclein and PLK4; format: cell-based; conditions: for EC50: HEK-293, Example 16, read-out: EC50 based on percent inhibition of synuclein phosphorylation, Synuclein + PLK4
T3 sequence (O00444 1-970): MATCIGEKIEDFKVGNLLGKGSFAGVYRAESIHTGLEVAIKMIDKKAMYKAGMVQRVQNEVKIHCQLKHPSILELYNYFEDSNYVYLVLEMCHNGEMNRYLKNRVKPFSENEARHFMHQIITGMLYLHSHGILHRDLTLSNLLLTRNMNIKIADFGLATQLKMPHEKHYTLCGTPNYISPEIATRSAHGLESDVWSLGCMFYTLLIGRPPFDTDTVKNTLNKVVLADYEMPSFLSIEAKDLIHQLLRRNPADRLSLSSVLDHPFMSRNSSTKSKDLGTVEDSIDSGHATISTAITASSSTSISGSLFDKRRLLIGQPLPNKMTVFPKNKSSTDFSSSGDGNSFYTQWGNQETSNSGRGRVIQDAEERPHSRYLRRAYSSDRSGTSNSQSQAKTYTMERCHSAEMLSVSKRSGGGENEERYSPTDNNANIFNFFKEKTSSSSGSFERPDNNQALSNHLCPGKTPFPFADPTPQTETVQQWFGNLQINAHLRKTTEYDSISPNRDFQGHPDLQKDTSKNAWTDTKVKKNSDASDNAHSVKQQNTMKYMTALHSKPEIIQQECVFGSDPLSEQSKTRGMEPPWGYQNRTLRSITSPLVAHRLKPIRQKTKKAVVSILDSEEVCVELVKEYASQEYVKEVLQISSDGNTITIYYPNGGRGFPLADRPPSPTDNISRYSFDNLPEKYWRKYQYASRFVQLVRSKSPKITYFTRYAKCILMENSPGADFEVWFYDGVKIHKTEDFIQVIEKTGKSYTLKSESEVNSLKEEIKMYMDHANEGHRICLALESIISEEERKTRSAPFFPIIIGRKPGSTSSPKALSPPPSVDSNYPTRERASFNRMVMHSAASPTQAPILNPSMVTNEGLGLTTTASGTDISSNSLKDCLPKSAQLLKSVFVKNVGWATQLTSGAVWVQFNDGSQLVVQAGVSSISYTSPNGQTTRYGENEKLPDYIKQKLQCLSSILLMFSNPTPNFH
Description: as §4

[7] = tested on: synuclein phosphorylation in the cellular paradigms tested; assay: Inhibition of synuclein phosphorylation, several cellular paradigms; format: cell-based
[8] = tested on: synuclein phosphorylation in MCC; assay: Synuclein phosphorylation in MCC treated with TBB; format: cell-based, mouse; conditions: even at concentrations of 100 μM; data not shown
Description: as §1, §2
To confirm that the inhibitory effect DMAT is due to inhibition of […], MCC were treated with TBB, a very specific CKII inhibitor. TBB had no effect on synuclein phosphorylation, even at concentrations of 100 μM (data not shown). Thus, we are confident that the inhibitory effect of DMAT on synuclein phosphorylation is due to its direct activity on PLK2 and not CKII.

[9] = target: synuclein phosphorylation by endogenous kinase in C56BL/6 WT mouse cortical cultures; assay: Synuclein phosphorylation in WT mouse cortical cultures (WT-MCC); format: cell-based; conditions: inhibitor 2 h; phospho-synuclein ELISA
Description: as §1, §2

T2 sequence (Q9H4B4 whole entry): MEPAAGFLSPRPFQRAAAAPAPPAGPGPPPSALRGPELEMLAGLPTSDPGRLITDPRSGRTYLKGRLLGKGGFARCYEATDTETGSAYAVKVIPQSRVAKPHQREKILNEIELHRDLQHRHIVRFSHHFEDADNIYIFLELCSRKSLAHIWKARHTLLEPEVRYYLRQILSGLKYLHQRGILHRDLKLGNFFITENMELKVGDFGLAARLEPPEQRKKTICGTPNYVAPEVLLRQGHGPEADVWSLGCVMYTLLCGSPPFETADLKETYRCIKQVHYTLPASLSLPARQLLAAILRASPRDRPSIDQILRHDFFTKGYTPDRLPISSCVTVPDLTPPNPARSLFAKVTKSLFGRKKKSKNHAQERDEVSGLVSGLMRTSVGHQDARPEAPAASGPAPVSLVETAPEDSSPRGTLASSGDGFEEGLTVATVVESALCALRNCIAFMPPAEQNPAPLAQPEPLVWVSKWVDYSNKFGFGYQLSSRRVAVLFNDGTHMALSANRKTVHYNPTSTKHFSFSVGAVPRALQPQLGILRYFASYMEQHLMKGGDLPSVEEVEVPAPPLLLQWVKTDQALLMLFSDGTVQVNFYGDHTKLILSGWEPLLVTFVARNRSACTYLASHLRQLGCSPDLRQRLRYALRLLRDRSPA
T1 sequence (Q9NYY3 whole entry): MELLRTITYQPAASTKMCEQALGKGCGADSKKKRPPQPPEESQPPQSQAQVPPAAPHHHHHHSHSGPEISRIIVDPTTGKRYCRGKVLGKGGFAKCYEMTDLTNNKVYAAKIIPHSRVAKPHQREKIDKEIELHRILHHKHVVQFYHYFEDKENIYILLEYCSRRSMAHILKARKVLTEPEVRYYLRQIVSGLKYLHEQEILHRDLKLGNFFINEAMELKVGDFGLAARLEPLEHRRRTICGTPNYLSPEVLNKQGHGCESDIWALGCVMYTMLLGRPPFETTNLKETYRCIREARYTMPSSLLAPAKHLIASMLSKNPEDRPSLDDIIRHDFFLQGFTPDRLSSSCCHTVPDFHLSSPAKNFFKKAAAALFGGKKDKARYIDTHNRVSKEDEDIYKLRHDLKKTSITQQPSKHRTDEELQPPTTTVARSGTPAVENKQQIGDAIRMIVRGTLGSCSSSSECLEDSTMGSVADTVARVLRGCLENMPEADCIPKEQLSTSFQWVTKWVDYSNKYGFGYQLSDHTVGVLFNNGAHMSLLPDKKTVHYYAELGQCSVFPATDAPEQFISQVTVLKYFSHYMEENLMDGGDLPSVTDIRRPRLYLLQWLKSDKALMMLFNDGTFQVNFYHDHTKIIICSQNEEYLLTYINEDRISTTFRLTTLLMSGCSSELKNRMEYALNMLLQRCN
Chain of PLK2 (Q9NYY3 whole entry): as above

CN(C)c1nc2c(Br)c(Br)c(Br)c(Br)c2[nH]1 [DMAT, 2-Dimethylamino-4,5,6,7-tetrabromo-1H-benzimidazole]
Rank order of potency, Straight Biochemical (PLK2): 2
Rank order of potency, E46K-Syn TG MCC ([1]; Table 19): 4
Rank order of potency, RVM E46K-Synuclein ([2]; Table 19): 4
EC50 ([3]; Rattus norvegicus): 28.5 µM
Rank order of potency, RVM E46K-Synuclein caPLK2 ([3]; Table 19): 4
Rank order of potency, Synuclein + Vector (endogenous kinase (293); Table 22): 2
Rank order of potency, Over-Expressed PLK2 (293) [4]: 4
Rank order of potency, Synuclein + PLK2 [4]: 2
Rank order of potency, Synuclein + PLK3 [5]: 2
EC50 [6]: 74.3 µM
Rank order of potency, Synuclein + PLK4 ([6]; Table 22): 2
EC50 ([7]; Homo sapiens, HEK293, read-out: EC50 values for the over-expressed PLKs): 14 to 74 µM
EC50 ([7]; read-out: EC50 values for inhibition of synuclein phosphorylation in the cellular paradigms): 16 to 33 µM

NC(=O)c1sc2c([N+](=O)[O-])cc(C(F)(F)F)cc2[n+]1[O-] [ELN-481080]
Rank order of potency, Straight Biochemical (PLK2): 3
EC50 ([3]; Rattus norvegicus): 25.2 µM
Rank order of potency, Over-Expressed PLK2 (293) [4]: 5
Rank order of potency, Synuclein + PLK2 [4]: 3
Rank order of potency, Synuclein + PLK3 [5]: 3
inhibition of synuclein phosphorylation by over-expressed PLK3 ([5]; concentrations of 30-100 μM): 30-40%
EC50 [6]: > 100 µM
inhibition of synuclein phosphorylation by over-expressed PLK4 ([6]; concentrations of 30-100 μM): 30-40%
EC50 ([7]; range over (most of) the cell types tested, read-out: EC50 values for inhibition of synuclein phosphorylation in the cellular paradigms): 12 to 38 µM

CC[C@@H]1C(=O)N(C)c2cnc(Nc3ccc(C(=O)NC4CCN(C)CC4)cc3OC)nc2N1C1CCCC1 [ELN-481574-2, 4-[[(7r)-8-cyclopentyl-7-ethyl-5,6,7,8-tetrahydro-5-methyl-6-oxo-2-pteridinyl]amino]-3-methoxy-n-(1-methyl-4-piperidinyl)-benzamide]
EC50 ([7]; most EC50 values, all cellular paradigms, read-out: EC50 values in cellular paradigms): ≤ 0.1 µM

Brc1c(Br)c(Br)c2[nH]nnc2c1Br [TBB, 4,5,6,7-Tetrabromo-2-azabenzimidazole]
effect on synuclein phosphorylation [8]: no effect

COC[C@H]1OC(=O)c2coc3c2[C@@]1(C)C1=C(C3=O)[C@@H]2CCC(=O)[C@@]2(C)C[C@H]1OC(C)=O [Wortmannin]
EC50 ([3]; Rattus norvegicus): > 100 µM

Scytonemin
EC50 [9]: > 100 µM
EC50 ([1]; inhibitor 2 h, phospho-synuclein ELISA, read-out: E46K-Syn TG MCC (EC50)): > 100 µM
EC50 ([2]; inhibitor 2 h on DIV 17): > 100 µM
EC50 [3]: > 100 µM
EC50 (endogenous kinase (293); Table 18): > 100 µM
inhibition of 50% of synuclein phosphorylation ([7]; in any of the cells or in the in vitro assay): did not inhibit 50% of synuclein phosphorylation
